These results are taken from patent US8841269B2, “Polynucleotides for use in treating and diagnosing cancers” (Creighton University, priority 2010, dated 2014).

Series [1] concerns 3′ UTR of human ER-α gene. Description: Luciferase reporter assay, ER-α 3′ UTR let-7 binding site in pMIR-REPORT. It is filed as cell-based. The note with it: MCF7 cells; for luciferase activity, ER-α binding site in 3′UTR of luciferase: 60 nmol/L mimics, vs negative control miRNA; for luciferase activity, mutated ER-α binding sequence: mutated sequence in 3′UTR of luciferase. The source says: Luciferase assay. A fragment of the 3′ UTR of human ER-α gene, which contains the putative let-7 target sites, was synthesized (IDT technology). With attached SpeI and HindIII restriction sites, the fragments are 48 by long. The sense strand was 5′-[…] (SEQ ID NO:39) while the antisense strand was 5′-[…] (SEQ ID NO:40). The cloning and transfection followed previous protocol (Hu et al., 2009, J Immunol 183:1617-24). Sixty nanomolar let-7 mimics, anti-let-7 inhibitors, pre-miR negative control #1 (AM17110, Ambion), or anti-miR negative control #1 (AM17010, Ambion) were transfected together with a 0.25 μg luciferase construct and a 0.25 μg β-galactosidase plasmid, which were used as a normalization reference. After 24 hour post-transfection, the luciferase activity was measured in a Veritas Microplate Luminometer (Turner Biosystems). Every treatment had 3 replicates. The luciferase activity was expressed as a fraction of negative control.
On the technique in general: Reporter assays use an easily measured gene product as a stand-in for the process of interest.

Series [2] is described as follows: Real-time PCR quantification of mature let-7 after mimic transfection in MCF7. It is filed as cell-based, human. The settings on record: for rank of forced expression throughout the time course: MCF7, relative quantity against RNU48. As to the method: Quantitative real-time PCR. For miRNA quantification in FFPE tissues, total RNA was extracted as described above; for miRNA quantification in cell lines, total RNA was isolated using mirVana miRNA Isolation Kit (Ambion Inc.). cDNA was synthesized by using 100 ng total RNA in a reaction volume of 15 μL, by following the protocol of Taqman miRNA Reverse Transcription Kit (Applied Biosystems). After 15 times dilution, 9 μL cDNA was used for real-time PCR in a 20 μL reaction volume, including 10 μL of master mix and 1 μL Taqman probe (Applied Biosystems). This reaction system only detects mature miRNAs not pre-miRNAs. The level of each miRNA was expressed following the 2^−ΔΔCt or […] method using the small nuclear RNA, RNU48, as the internal reference.
For FFPE tissues, there was the same repeat number as in microarray; for cell lines, there were three biological repeats. Each sample had three technical repeats on the PCR plate. Real-time PCR was performed on an Applied Biosystems 7900HT real-time PCR instrument. PCR was initiated by two holds of 52° C. 2 min and 94° C. 10 min each, followed by 40 cycles of 15 s at 95° C. and 1 min at 60° C.
(Real-time PCR tracks product formation cycle by cycle.)

The nature of series [3]: Real-time PCR of let-7 levels after mimic transfection (Example 2). It is filed as cell-based, human. How it is done:
To analyze mature let-7 miRNAs with real-time PCR, total RNA was isolated from the cell lines using mirVana miRNA isolation kit (Ambion Inc., Austin, Tex.) or from FFPE tissues using the miRNeasy FFPE Kit (Qiagen, Valencia, Calif.) following the manufacturer's instructions. We collected FFPE breast tissues from 13 benign, 16 ductal carcinomas in situ (DCIS), and 15 invasive ductal carcinomas (IDC), all of which were prepared as 50 μm thick sheets. The benign breast tissues were from surgical resections of abnormal breast lesions with non-neoplastic phenotypes such as calcification, fibrocystic changes or stromal fibrosis. cDNA was synthesized using 100 ng total RNA in a reaction volume of 15 μL and following the protocol of Taqman microRNA reverse transcription kit (Applied Biosystems, Foster City, Calif.). After 15 dilution, 9 μl, cDNA mixture was used for real-time PCR in 20 μL reaction volume, including 10 μL of TaqMan universal PCR master mix (no ampErase UNG) and 1 μL Taqman probe (Applied Biosystems, Foster City, Calif.). Real-time PCR was performed on 7900HT realtime PCR instrument (Applied Biosystems). PCR was initiated by two holds of 52° C. 2 min and 94° C. 10 min each, followed by 40 cycles of 15 s at 95° C. and 1 min at 60° C. The level of each miRNA was expressed following the 2^−ΔCt method using the small nuclear RNA RNU48 as the internal reference.
Let-7 miRNA or negative control #1 miRNA of 60 nmol/L (Ambion, Austin, Tex.) was transfected into cells with the siPORT NeoFX reagent (Ambion, Austin, Tex.) following the manufacturer's protocol.

The mark [4] stands for this setting: MCF7-Tam, 6 days after transfection, vs negative control.
Where [5] appears, read: MCF7-Tam, two days after transfection.
Where [6] appears, read: MDA-MB-231, after 2 days, vs negative control cells.
[7] abbreviates: MCF7, one day post transfection, 60 nmol/L each.

Entries after “also recorded” stand apart in the source; their conditions may differ.

For the substance “let-7i: let-7i miRNA (mimic), 3′-UUGUCGUGUUUGAUGAUGGAGU-5′ (SEQ ID NO:14) (chemistry not given here; listed 3' to 5')”, the “luciferase activity, ER-α binding site in 3′UTR of luciferase” value in series [1] was “decreased the luciferase activity; also recorded: significantly inhibited the luciferase activity”. In addition, in series [1], the “luciferase activity, mutated ER-α binding sequence” value is recorded as “abrogated the effects; also recorded: did not show inhibition”. Besides, the “rank of forced expression throughout the time course” value in series [2] is reported as “in the middle”. The “increase of let-7 level after mimic transfection” value is reported as 100 fold in series [3] (setting [4]), around 300 fold in series [3] (setting [5]) and around 200 fold in series [3] (setting [6]).
As to “let-7b: let-7b miRNA (mimic), 3′-UUGGUGUGUUGGAUGAUGGAGU-5′ (SEQ ID NO:8) (chemistry not given here; listed 3' to 5')”, the “luciferase activity, ER-α binding site in 3′UTR of luciferase” value in series [1] is on record as “decreased the luciferase activity; also recorded: significantly inhibited the luciferase activity”. Also, the “luciferase activity, mutated ER-α binding sequence” value in series [1] is recorded as “abrogated the effects; also recorded: did not show inhibition”. The “expression of let-7b relative to let-7a and let-7i” value in series [2] (MCF7, after 2 days) worked out at 2. The “mature let-7b level relative to let-7a” value in series [2] (MCF7, after 6 days) is listed as around 10; in series [2] (setting [7]), around 20. For the same substance, in series [2] (setting [7]), the “mature let-7b level relative to let-7i” value was around 6. Besides, in series [2], the “rank of forced expression throughout the time course” value is listed as “highest expression”. Further, the “increase of let-7 level after mimic transfection” value is reported as 100 fold in series [3] (setting [4]), around 600 fold in series [3] (setting [5]) and around 400 fold in series [3] (setting [6]).
